Experimental data: patent US7632859B2, “Iontophoretic delivery of rotigotine for the treatment of Parkinson's disease” (Schwarz Pharma AG, priority 2002, dated 2009)
Each block holds one compound with its values, some of them ahead of it.

How the values were obtained:
[1] = Solubility of rotigotine in the donor phase; format: physicochemical
From the text: To provide for an optimal flux across human stratum corneum it was also necessary to provide for a sufficient concentration of Cl^− ions for the electrode reaction in the donor phase.

[2] = In vitro iontophoretic flux of rotigotine, three-chamber flow-through diffusion cells; format: in vitro ADME, human; details: donor pH 5, 500 μA/cm^2, 20° C.
Method: In vitro iontophoretic studies for the administration of rotigotine were carried out with three-chamber flow-through diffusion cells as described by […] al. ([…]. Boddé, “Validation and testing of a new iontophoretic continuous flow through transport cell”, J. Control. Release (1998), 51, […]). On both sides of the acceptor compartment human stratum corneum (SC) was situated. A dialysis membrane having a 5.000 Da cut-off was used as supporting membrane. The volume of the outer chambers was approximately 2 ml, while the volume of the acceptor compartment was 0.54 ml. The two outer chambers contained the silver plate (anode) or silver/silver chloride (cathode) driver […]. The donor phase consisted of rotigotine solution buffered with 5 mM citrate buffer (2.1 mM sodium citrate dihydrate and 2.9 mM citric acid). Using this set-up, a pH in the donor chamber of 5, a current density of 500 μA/cm^2, a pH in the acceptor chamber of 7.4, a temperature of 20° C. and an NaCl concentration in the donor chamber of 70 mmol/l, the flux of rotigotine was measured for different drug concentrations in the donor phase. Using a similar procedure as in Example 1 and a concentration of rotigotine of 1.4 mg/ml (3.98 mM), a pH in the donor chamber of 5, a current density of 500 μA/cm^2, a pH in the acceptor chamber of 7.4 and a temperature of 20° C., but substituting triethylammonium chloride (TEACl) or tributylammonium chloride (TBACl) for NaCl, the influence of the different cations on the flux was evaluated. The concentration of the chloride salts in the donor solution was 70 mmol/l. Using a similar procedure and the same parameters as in Example 2, the influence of reducing the pH in the acceptor chamber from 7.4 to 6.2 was evaluated for different chloride salts. The concentration of the chloride salts in the donor solution was 70 mmol/l.

[3] = relative to therapeutic range; cited from earlier work
[4] = relative to therapeutic concentration range of 1.4 to 10.7 ng/ml; cited from earlier work

solubility of rotigotine ([1]; effect of addition of chloride salts): reduces the solubility
solubility of rotigotine ([1]; effect of increasing pH): decreases when the pH is increased
Flux Rotigotine ([2]; co-ions source NaCl 70 mmol/l, rotigotine 1.4 mg/ml (3.98 mM), acceptor pH 7.4): 53.2 nmol/cm^2/h
Flux Rotigotine ([2]; co-ions source NaCl 70 mmol/l, rotigotine 1.4 mg/ml, acceptor pH 6.2): 58.9 nmol/cm^2/h
Flux Rotigotine ([2]; co-ions source TBACl 70 mmol/l, rotigotine 1.4 mg/ml (3.98 mM), acceptor pH 7.4): 62.0 nmol/cm^2/h
Flux Rotigotine ([2]; co-ions source TBACl 70 mmol/l, rotigotine 1.4 mg/ml, acceptor pH 6.2): 76.5 nmol/cm^2/h
Flux Rotigotine ([2]; co-ions source TEACl 70 mmol/l, rotigotine 1.4 mg/ml (3.98 mM), acceptor pH 7.4): 72.8 nmol/cm^2/h
Flux Rotigotine ([2]; co-ions source TEACl 70 mmol/l, rotigotine 1.4 mg/ml, acceptor pH 6.2): 43.2 nmol/cm^2/h
Flux Rotigotine ([2]; rotigotine donor conc. 0.5 mg/ml (1.4 mM), NaCl 70 mmol/l, acceptor pH 7.4): 22.9 nmol/cm^2/h
Flux Rotigotine ([2]; rotigotine donor conc. 1.0 mg/ml (2.8 mM), NaCl 70 mmol/l, acceptor pH 7.4): 30.2 nmol/cm^2/h
Flux Rotigotine ([2]; rotigotine donor conc. 1.4 mg/ml (3.98 mM), NaCl 70 mmol/l, acceptor pH 7.4): 53.2 nmol/cm^2/h
SMILES: CCCN(CCc1cccs1)[C@H]1CCc2c(O)cccc2C1 [Rotigotine, (−)-5,6,7,8-tetrahydro-6-[propyl-[2-(2-thienyl)ethyl]-amino]-1-naphthalenol]

SMILES: CCCN(CCC)CCc1cccc2c1CC(=O)N2 [ropinirole]
fluxes obtained by iontophoretic administration [3]: lower end of the therapeutic range

SMILES: CN1CCc2cccc3c2[C@H]1Cc1ccc(O)c(O)c1-3 [R-apomorphine, (R)-5,6,6a,7-tetrahydro-6-methyl-4H-dibenzoquinoline-11,12-diol]
concentrations obtained by iontophoretic administration [4]: lower end of the therapeutic concentration range
